Reference: ChEMBL document CHEMBL4118261, “Synthesis, iron binding and antimicrobial properties of hexadentate 3-hydroxypyridinones-terminated dendrimers” (2018)
Calls of active or inactive are those of the source. The calls are words filed in the database; no cut-off is given here.

Key:
Escherichia coli = test: Antibacterial activity against Escherichia coli CGMCC 1.0907 assessed as growth inhibition at 100 ug/ml after 24 hrs; assay type: functional; conditions: for inhibition of growth at 100 µg/mL: CGMCC 1.0907, 24 h, read-out: GI
Pseudomonas aeruginosa = test: Antibacterial activity against Pseudomonas aeruginosa CGMCC 1.2342 assessed as growth inhibition at 100 ug/ml after 24 hrs; assay type: functional; conditions: for inhibition of growth at 100 µg/mL: CGMCC 1.2342, 24 h, read-out: GI
Staphylococcus aureus = test: Antibacterial activity against Staphylococcus aureus CGMCC 1.0089 assessed as growth inhibition at 100 ug/ml after 24 hrs; assay type: functional; conditions: for inhibition of growth at 100 µg/mL: CGMCC 1.0089, 24 h, read-out: GI
Bacillus subtilis = test: Antibacterial activity against Bacillus subtilis CGMCC 1.0108 assessed as growth inhibition at 100 ug/ml after 24 hrs; assay type: functional; conditions: for inhibition of growth at 100 µg/mL: CGMCC 1.0108, 24 h, read-out: GI
[1] = Binding affinity to Fe3+ at 1:6 compound to ferric ion molar ratio measured after 4 hrs at pH 8.2 to 8.4 measured at 460 nm by UV/Vis spectrophotometry
[2] = Iron chelating activity assessed as pFe3+ by measuring fluorescence intensity of the iron-CP691 complex at 1 uM after 1 month incubation in absence of light using CP691 as fluorescent probe by fluorescence assay relative to CP691 alone
[3] = Binding affinity to Fe3+ at 1:6 compound to ferric ion molar ratio by HR-ESI MS analysis
[4] = Metal chelating activity assessed as formation of [Fe3L+H+Na]2+-compound complex at 1:3 compound to ferric ion molar ratio by HR-ESI MS analysis
[5] = Metal chelating activity assessed as formation of [Fe3L+H+2Na]3+-compound complex at 1:3 compound to ferric ion molar ratio by HR-ESI MS analysis
[6] = Binding affinity to Fe3+ at 1:2 compound to ferric ion molar ratio by HR-ESI MS analysis
[7] = Binding affinity to Fe3+ at 1:1 compound to ferric ion molar ratio by HR-ESI MS analysis
[8] = Iron chelating activity assessed as pFe3+ by measuring fluorescence intensity of the iron-CP691 complex at 2 uM after 1 month incubation in absence of light using CP691 as fluorescent probe by fluorescence assay relative to CP691 alone
[9] = Binding affinity to Fe3+ at 1:3 compound to ferric ion molar ratio measured after 4 hrs at pH 8.2 to 8.4 measured at 460 nm by UV/Vis spectrophotometry
[10] = Binding affinity to Fe3+ at 1:9 compound to ferric ion molar ratio measured after 4 hrs at pH 8.2 to 8.4 measured at 460 nm by UV/Vis spectrophotometry
[11] = Iron chelating activity assessed as pFe3+ by measuring fluorescence intensity of the iron-CP691 complex at 0.67 uM after 1 month incubation in absence of light using CP691 as fluorescent probe by fluorescence assay relative to CP691 alone
[12] = Binding affinity to Fe3+ at 1:9 compound to ferric ion molar ratio by HR-ESI MS analysis

Activity [1]	log(activity) [2]	Activity [3]	Activity [9]	SMILES	inhibition of growth at 100 µg/mL (Escherichia coli)	inhibition of growth at 100 µg/mL (Pseudomonas aeruginosa)	inhibition of growth at 100 µg/mL (Staphylococcus aureus)	inhibition of growth at 100 µg/mL (Bacillus subtilis)	Activity [4]	Activity [5]	Activity [6]	Activity [7]	log(activity) [8]	growth inhibition (GI) (Escherichia coli)	growth inhibition (GI) (Pseudomonas aeruginosa)	growth inhibition (GI) (Staphylococcus aureus)	growth inhibition (GI) (Bacillus subtilis)	Activity [10]	log(activity) [11]	Activity [12]
–	–	–	–	Cc1c(O)c(=O)ccn1C [DEFERIPRONE]	89.1%	79.5%	74.8%	77.4%	–	–	–	–	–	–	–	–	–	–	–	–
Active	30.3	inactive	–	CCCCn1ccc(=O)c(CNC(=O)CCC(CCC(=O)NCc2c(O)c(=O)ccn2CCCC)(CCC(=O)NCc2c(O)c(=O)ccn2CCCC)NC(=O)CCNC(=O)CCC(CCC(=O)NCCC(=O)NC(CCC(=O)NCc2c(O)n(CCCC)ccc2=O)(CCC(=O)NCc2c(O)c(=O)ccn2CCCC)CCC(=O)NCc2c(O)c(=O)ccn2CCCC)(CCC(=O)NCCC(=O)NC(CCC(=O)NCc2c(O)n(CCCC)ccc2=O)(CCC(=O)NCc2c(O)c(=O)ccn2CCCC)CCC(=O)NCc2c(O)c(=O)ccn2CCCC)NC(=O)CCNC(=O)CCNC(=O)c2ccc(C(=O)NCCC(=O)NCCC(=O)NC(CCC(=O)NCCC(=O)NC(CCC(=O)NCc3c(O)n(CCCC)ccc3=O)(CCC(=O)NCc3c(O)c(=O)ccn3CCCC)CCC(=O)NCc3c(O)c(=O)ccn3CCCC)(CCC(=O)NCCC(=O)NC(CCC(=O)NCc3c(O)n(CCCC)ccc3=O)(CCC(=O)NCc3c(O)c(=O)ccn3CCCC)CCC(=O)NCc3c(O)c(=O)ccn3CCCC)CCC(=O)NCCC(=O)NC(CCC(=O)NCc3c(O)n(CCCC)ccc3=O)(CCC(=O)NCc3c(O)c(=O)ccn3CCCC)CCC(=O)NCc3c(O)c(=O)ccn3CCCC)cc2)c1O	79.8%	87.9%	86.9%	81.4%	–	–	–	–	–	–	–	–	–	–	–	–
–	–	–	–	O=C(CCC(CCC(=O)NCc1c(O)c(=O)ccn1CCO)(CCC(=O)NCc1c(O)c(=O)ccn1CCO)NC(=O)CCNC(=O)CN(CC(=O)NCCC(=O)NC(CCC(=O)NCc1c(O)c(=O)ccn1CCO)(CCC(=O)NCc1c(O)c(=O)ccn1CCO)CCC(=O)NCc1c(O)c(=O)ccn1CCO)CC(=O)NCCC(=O)NC(CCC(=O)NCc1c(O)c(=O)ccn1CCO)(CCC(=O)NCc1c(O)c(=O)ccn1CCO)CCC(=O)NCc1c(O)c(=O)ccn1CCO)NCc1c(O)c(=O)ccn1CCO	–	–	–	–	Active	Active	inactive	inactive	30	99.7%	85.3%	81.7%	95%	–	–	–
–	–	–	Active	CCCCn1ccc(=O)c(O)c1CNC(=O)CCC(CCC(=O)NCc1c(O)c(=O)ccn1CCCC)(CCC(=O)NCc1c(O)c(=O)ccn1CCCC)NC(=O)CCNC(=O)CN(CC(=O)NCCC(=O)NC(CCC(=O)NCc1c(O)c(=O)ccn1CCCC)(CCC(=O)NCc1c(O)c(=O)ccn1CCCC)CCC(=O)NCc1c(O)c(=O)ccn1CCCC)CC(=O)NCCC(=O)NC(CCC(=O)NCc1c(O)c(=O)ccn1CCCC)(CCC(=O)NCc1c(O)c(=O)ccn1CCCC)CCC(=O)NCc1c(O)c(=O)ccn1CCCC	71.7%	90.4%	90%	84.8%	Active	Active	inactive	inactive	30.3	–	–	–	–	–	–	–
–	–	–	–	CCCCn1ccc(=O)c(CNC(=O)CCC(CCC(=O)NCc2c(O)c(=O)ccn2CCCC)(CCC(=O)NCc2c(O)c(=O)ccn2CCCC)NC(=O)CCNC(=O)CCC(CCC(=O)NCCC(=O)NC(CCC(=O)NCc2c(O)n(CCCC)ccc2=O)(CCC(=O)NCc2c(O)c(=O)ccn2CCCC)CCC(=O)NCc2c(O)c(=O)ccn2CCCC)(CCC(=O)NCCC(=O)NC(CCC(=O)NCc2c(O)n(CCCC)ccc2=O)(CCC(=O)NCc2c(O)c(=O)ccn2CCCC)CCC(=O)NCc2c(O)c(=O)ccn2CCCC)NC(=O)CCNC(=O)CCNC(=O)c2cc(C(=O)NCCC(=O)NCCC(=O)NC(CCC(=O)NCCC(=O)NC(CCC(=O)NCc3c(O)n(CCCC)ccc3=O)(CCC(=O)NCc3c(O)c(=O)ccn3CCCC)CCC(=O)NCc3c(O)c(=O)ccn3CCCC)(CCC(=O)NCCC(=O)NC(CCC(=O)NCc3c(O)n(CCCC)ccc3=O)(CCC(=O)NCc3c(O)c(=O)ccn3CCCC)CCC(=O)NCc3c(O)c(=O)ccn3CCCC)CCC(=O)NCCC(=O)NC(CCC(=O)NCc3c(O)n(CCCC)ccc3=O)(CCC(=O)NCc3c(O)c(=O)ccn3CCCC)CCC(=O)NCc3c(O)c(=O)ccn3CCCC)cc(C(=O)NCCC(=O)NCCC(=O)NC(CCC(=O)NCCC(=O)NC(CCC(=O)NCc3c(O)n(CCCC)ccc3=O)(CCC(=O)NCc3c(O)c(=O)ccn3CCCC)CCC(=O)NCc3c(O)c(=O)ccn3CCCC)(CCC(=O)NCCC(=O)NC(CCC(=O)NCc3c(O)n(CCCC)ccc3=O)(CCC(=O)NCc3c(O)c(=O)ccn3CCCC)CCC(=O)NCc3c(O)c(=O)ccn3CCCC)CCC(=O)NCCC(=O)NC(CCC(=O)NCc3c(O)n(CCCC)ccc3=O)(CCC(=O)NCc3c(O)c(=O)ccn3CCCC)CCC(=O)NCc3c(O)c(=O)ccn3CCCC)c2)c1O	–	–	–	–	–	–	–	–	–	81.2%	69.9%	64.5%	64.1%	Active	29.8	inactive
